According to patent US11530244B2, “Cyclic polypeptides for PCSK9 inhibition” (priority 2018, dated 2022):
pIC50: −log10 of the molar value. Starred links: 1 amine or outer side, 2 acyl side, 3 side chain; linkers in the order of their positions; H or OH if unused. Positions of bridges follow the written chain, without caps; N, C: chain ends. Non-standard residues stand in square brackets, D forms with d. Residues, ends and D or L forms follow the SMILES beside them. X52 = O=C([C@H](Cc1cc2cc(F)ccc2[nH]1)N[*:1])[*:2]; Trp(5-F) = N[C@@H](Cc1c[nH]c2ccc(F)cc12)C(=O)O; NMePhe(4-F) = CN[C@@H](Cc1ccc(F)cc1)C(=O)O; NMeW = CN[C@@H](Cc1c[nH]c2ccccc12)C(=O)O; X4 = O=C(CCSCc1cccc(CSCCN[*:1])c1)[*:2]; mXylylene = c1cc(C[*:1])cc(C[*:2])c1; NMeY = CN[C@@H](Cc1ccc(O)cc1)C(=O)O; NMeL = CN[C@@H](CC(C)C)C(=O)O; αMeP = C[C@@]1(C(=O)O)CCCN1; NMeS = CN[C@@H](CO)C(=O)O; NMeA = CN[C@@H](C)C(=O)O; Aze = O=C(O)[C@@H]1CCN1; Nva = CCC[C@H](N)C(=O)O; βAla = NCCC(=O)O; Mpa = O=C(O)CCS; Sar = CNCC(=O)O

Molecular target: human PCSK9 / human LDLR EGFa domain interaction (Homo sapiens (Human), UniProt Q8NBP7)
Sequence (Q8NBP7 153-692): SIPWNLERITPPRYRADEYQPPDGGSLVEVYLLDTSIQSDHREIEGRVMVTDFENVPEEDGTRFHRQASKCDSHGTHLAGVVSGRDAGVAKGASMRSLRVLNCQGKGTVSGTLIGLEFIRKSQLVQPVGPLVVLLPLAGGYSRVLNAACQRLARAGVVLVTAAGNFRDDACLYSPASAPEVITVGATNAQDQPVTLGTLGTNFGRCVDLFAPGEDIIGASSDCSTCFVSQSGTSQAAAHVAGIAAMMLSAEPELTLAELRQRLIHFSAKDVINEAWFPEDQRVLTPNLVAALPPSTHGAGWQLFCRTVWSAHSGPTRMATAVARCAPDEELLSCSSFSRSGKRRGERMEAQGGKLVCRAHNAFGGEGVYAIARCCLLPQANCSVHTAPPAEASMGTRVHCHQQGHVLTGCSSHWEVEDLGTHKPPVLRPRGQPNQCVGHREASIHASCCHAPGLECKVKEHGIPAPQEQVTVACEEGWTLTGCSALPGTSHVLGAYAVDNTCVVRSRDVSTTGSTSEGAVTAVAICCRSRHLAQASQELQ
Sequence (Q8NBP7 31-152 partner): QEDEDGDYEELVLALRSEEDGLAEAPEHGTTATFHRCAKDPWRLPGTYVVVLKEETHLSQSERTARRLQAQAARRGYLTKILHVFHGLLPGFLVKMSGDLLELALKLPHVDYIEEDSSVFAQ
Assay: TR-FRET assay of inhibition of the PCSK9-LDLR protein-protein interaction
Assay type: binding
Details: TR-FRET, 20 nM human PCSK9, 20 nM human LDLR EGFa domain, 2 hours room temperature; read-out: IC50
Experimental: A time-resolved fluorescence resonance energy (TR-FRET) assay was used to measure inhibition of the PCSK9-LDLR protein-protein interaction. Briefly, 20 nM avitag-biotinylated human PCSK9 was incubated with 20 nM his-tagged human LDLR EGFa domain in the presence of 5 nM LANCE Ulight Streptavidin (Perkin Elmer) and 5 nM europium-Anti-6×His (Perkin Elmer) for 2 hours covered at room temperature in buffer containing 50 mM HEPES, 150 mM NaCl, 5 mM CaCl2), 0.01% BSA and 0.01% Surfactant P20. Compounds were tested in dose-response and concentrations giving half-maximal inhibition calculated using a 4-parameter fit equation.

pIC50 | Structure (SMILES)
4.30 to 4.68 | C[C@@H]1NC(=O)[C@@H]2CCN2C(=O)[C@H](Cc2c[nH]c3ccc(F)cc23)NC(=O)[C@H](Cc2c[nH]c3ccc(F)cc23)NC(=O)[C@@H](C)NC(=O)[C@H](CCCCN)NC(=O)CCSCc2cccc(c2)CSCCNC(=O)[C@]2(C)CCCN2C(=O)[C@H](Cc2ccc(O)cc2)NC1=O [Compound 002] (cyclo(AY[αMeP][X4]K[dA][Trp(5-F)][Trp(5-F)][Aze]))
4.92 to 6.00 | COc1ccc(C[C@@H]2NC(=O)CCNC(=O)[C@@H]3CCCN3C(=O)[C@H](Cc3c[nH]c4ccc(F)cc34)NC(=O)[C@H](Cc3cc4cc(F)ccc4[nH]3)NC(=O)[C@@H](C)NC(=O)[C@H](CCCCN)NC(=O)CCSCc3cccc(c3)CSCCNC(=O)[C@]3(C)CCCN3C2=O)cc1 [Compound 003] (cyclo(K[dA][X52][Trp(5-F)]P[βAla]Y(Me)[αMeP][X4]))
6.00 to 7.00 | C[C@@H](O)[C@@H]1NC(=O)[C@@H]2CCCN2C(=O)[C@H](Cc2c[nH]c3ccc(F)cc23)NC(=O)[C@H](Cc2c[nH]c3ccc(F)cc23)NC(=O)CNC(=O)[C@H](CCCCN)NC(=O)CCSCc2cccc(c2)CSC[C@@H](C(N)=O)NC(=O)[C@]2(C)CCCN2C(=O)[C@H](Cc2ccc(O)cc2)NC1=O [Compound 014] ([Mpa]KG[Trp(5-F)][Trp(5-F)]PTY[αMeP]C-NH2; linker 1-10 via mXylylene)
4.92 to 6.00 | C[C@H]1C(=O)N(C)[C@@H](Cc2ccc(O)cc2)C(=O)N2CCC[C@H]2C(=O)N[C@H](C(N)=O)CSCc2cccc(c2)CSCCC(=O)N[C@@H](CCCCN)C(=O)N(C)CC(=O)N(C)[C@@H](Cc2c[nH]c3ccccc23)C(=O)N[C@@H](Cc2c[nH]c3ccccc23)C(=O)N[C@@H](CC(=O)O)C(=O)N1C [Compound 015] ([Mpa]K[Sar][NMeW]WD[NMeA][NMeY]PC-NH2; linker 1-10 via mXylylene)
6.00 to 7.00 | C[C@H]1NC(=O)[C@H](Cc2c[nH]c3ccc(F)cc23)NC(=O)[C@H](Cc2c[nH]c3ccc(F)cc23)NC(=O)CNC(=O)[C@H](CCCCN)NC(=O)CCSCc2cccc(c2)CSC[C@@H](C(N)=O)NC(=O)[C@]2(C)CCCN2C(=O)[C@H](Cc2ccc(O)cc2)NC(=O)[C@H](Cc2cnc[nH]2)NC1=O [Compound 032] ([Mpa]KG[Trp(5-F)][Trp(5-F)][dA]HY[αMeP]C-NH2; linker 1-10 via mXylylene)
4.92 to 6.00 | C[C@H]1NC(=O)[C@H](CC(=O)O)NC(=O)[C@H](Cc2c[nH]c3ccc(F)cc23)NC(=O)[C@H](Cc2c[nH]c3ccc(F)cc23)NC(=O)CNC(=O)[C@H](CCCCN)NC(=O)CCSCc2cccc(c2)CSC[C@@H](C(N)=O)NC(=O)[C@]2(C)CCCN2C(=O)[C@H](Cc2ccc(O)cc2)NC1=O [Compound 033] ([Mpa]KG[Trp(5-F)][Trp(5-F)]D[dA]Y[αMeP]C-NH2; linker 1-10 via mXylylene)
6.00 to 7.00 | COc1ccc(C[C@@H]2NC(=O)[C@@H](CC(C)C)NC(=O)[C@H](CC(C)C)NC(=O)CCSCc3cccc(c3)CSC[C@@H](C(N)=O)NC(=O)[C@]3(C)CCCN3C(=O)[C@H](Cc3ccc(OC)cc3)NC(=O)[C@H]([C@@H](C)OC)NC(=O)[C@H](CC(C)C)N(C)C(=O)[C@H](Cc3ccc(OC)cc3)NC2=O)cc1 [Compound 037] ([Mpa]L[dL]Y(Me)Y(Me)[NMeL]T(Me)Y(Me)[αMeP]C-NH2; linker 1-10 via mXylylene)
4.30 to 4.68 | CCC[C@H](NC(C)=O)C(=O)N[C@@H](Cc1c[nH]cn1)C(=O)N(C)[C@@H](Cc1ccc(F)cc1)C(=O)N[C@H]1CSCc2cccc(c2)CSC[C@@H](C(N)=O)NC(=O)[C@@H]2CCCN2C(=O)[C@H](Cc2ccc(O)cc2)NC(=O)[C@H](Cc2c[nH]cn2)NC(=O)[C@H](CC(=O)O)NC(=O)[C@H](Cc2c[nH]c3ccc(F)cc23)NC(=O)[C@H](Cc2c[nH]c3ccc(F)cc23)NC(=O)CNC(=O)[C@H](CCCCN)NC1=O [Compound 143] (Ac-[Nva]H[NMePhe(4-F)]CKG[Trp(5-F)][Trp(5-F)]DHYPC-NH2; linker 4-13 via mXylylene)
4.92 to 6.00 | CCC[C@H](NC(C)=O)C(=O)N[C@H](Cc1c[nH]cn1)C(=O)N(C)[C@@H](Cc1ccc(F)cc1)C(=O)N[C@H]1CSCc2cccc(c2)CSC[C@@H](C(N)=O)NC(=O)[C@@H]2CCCN2C(=O)[C@H](Cc2ccc(O)cc2)NC(=O)[C@H](Cc2c[nH]cn2)NC(=O)[C@H](CC(=O)O)NC(=O)[C@H](Cc2c[nH]c3ccc(F)cc23)NC(=O)[C@H](Cc2c[nH]c3ccc(F)cc23)NC(=O)CNC(=O)[C@H](CCCCN)NC1=O [Compound 144] (Ac-[Nva][dH][NMePhe(4-F)]CKG[Trp(5-F)][Trp(5-F)]DHYPC-NH2; linker 4-13 via mXylylene)
4.92 to 6.00 | CCC[C@H](NC(C)=O)C(=O)N(C)[C@@H](CO)C(=O)N[C@@H](CCCCN)C(=O)N[C@H]1CSCc2cccc(c2)CSC[C@@H](C(N)=O)NC(=O)[C@@H]2CCCN2C(=O)[C@H](Cc2ccc(O)cc2)NC(=O)[C@H](Cc2c[nH]cn2)NC(=O)[C@H](CC(=O)O)NC(=O)[C@H](Cc2c[nH]c3ccc(F)cc23)NC(=O)[C@H](Cc2c[nH]c3ccc(F)cc23)NC(=O)CNC(=O)[C@H](CCCCN)NC1=O [Compound 145] (Ac-[Nva][NMeS]KCKG[Trp(5-F)][Trp(5-F)]DHYPC-NH2; linker 4-13 via mXylylene)
7.00 to 10.00 | CC(=O)N[C@@H](Cc1cnc[nH]1)C(=O)N(C)[C@@H](Cc1ccc(F)cc1)C(=O)N[C@H]1CSCc2cccc(c2)CSC[C@@H](C(N)=O)NC(=O)[C@@H]2CCCN2C(=O)[C@H](Cc2ccc(O)cc2)NC(=O)[C@H](Cc2cnc[nH]2)NC(=O)[C@H](CC(=O)O)NC(=O)[C@H](Cc2c[nH]c3ccc(F)cc23)NC(=O)[C@H](Cc2c[nH]c3ccc(F)cc23)NC(=O)CNC(=O)[C@H](CCCCN)NC1=O [Compound 146] (Ac-H[NMePhe(4-F)]CKG[Trp(5-F)][Trp(5-F)]DHYPC-NH2; linker 3-12 via mXylylene)
6.00 to 7.00 | CC(=O)N(C)[C@@H](Cc1ccc(F)cc1)C(=O)N[C@H]1CSCc2cccc(c2)CSC[C@@H](C(N)=O)NC(=O)[C@@H]2CCCN2C(=O)[C@H](Cc2ccc(O)cc2)NC(=O)[C@H](Cc2cnc[nH]2)NC(=O)[C@H](CC(=O)O)NC(=O)[C@H](Cc2c[nH]c3ccc(F)cc23)NC(=O)[C@H](Cc2c[nH]c3ccc(F)cc23)NC(=O)CNC(=O)[C@H](CCCCN)NC1=O [Compound 147] (Ac-[NMePhe(4-F)]CKG[Trp(5-F)][Trp(5-F)]DHYPC-NH2; linker 2-11 via mXylylene)
6.00 to 7.00 | CC(=O)N[C@H]1CSCc2cccc(c2)CSC[C@@H](C(N)=O)NC(=O)[C@@H]2CCCN2C(=O)[C@H](Cc2ccc(O)cc2)NC(=O)[C@H](Cc2cnc[nH]2)NC(=O)[C@H](CC(=O)O)NC(=O)[C@H](Cc2c[nH]c3ccc(F)cc23)NC(=O)[C@H](Cc2c[nH]c3ccc(F)cc23)NC(=O)CNC(=O)[C@H](CCCCN)NC1=O [Compound 148] (Ac-CKG[Trp(5-F)][Trp(5-F)]DHYPC-NH2; linker 1-10 via mXylylene)
4.92 to 6.00 | NCCCC[C@@H]1NC(=O)CCCCn2cc(nn2)CCC[C@@H](C(N)=O)NC(=O)[C@@H]2CCCN2C(=O)[C@H](Cc2ccc(O)cc2)NC(=O)[C@H](Cc2c[nH]cn2)NC(=O)[C@H](CC(=O)O)NC(=O)[C@H](Cc2c[nH]c3ccc(F)cc23)NC(=O)[C@H](Cc2c[nH]c3ccc(F)cc23)NC(=O)CNC1=O [Compound 153]
4.92 to 6.00 | C[C@@H]1NC(=O)[C@H](CCCCN)NC(=O)CCSCc2cccc(c2)CSC[C@@H](C(N)=O)NC(=O)[C@@H]2CCCN2C(=O)[C@H](Cc2ccc(O)cc2)NC(=O)[C@H](Cc2cnc[nH]2)NC(=O)[C@H](CC(=O)O)NC(=O)[C@H](Cc2c[nH]c3ccc(F)cc23)NC(=O)[C@H](Cc2c[nH]c3ccc(F)cc23)NC1=O [Compound 156] ([Mpa]KA[Trp(5-F)][Trp(5-F)]DHYPC-NH2; linker 1-10 via mXylylene)
4.30 to 4.68 | NCCCC[C@@H]1NC(=O)CCSCc2cccc(c2)CSC[C@@H](C(N)=O)NC(=O)[C@@H]2CCCN2C(=O)[C@H](Cc2ccc(O)cc2)NC(=O)[C@@H](Cc2cnc[nH]2)NC(=O)[C@H](CC(=O)O)NC(=O)[C@H](Cc2c[nH]c3ccc(F)cc23)NC(=O)[C@H](Cc2c[nH]c3ccc(F)cc23)NC(=O)CNC1=O [Compound 163] ([Mpa]KG[Trp(5-F)][Trp(5-F)]D[dH]YPC-NH2; linker 1-10 via mXylylene)
4.30 to 4.68 | NCCCC[C@@H]1NC(=O)CCSCc2cccc(c2)CSC[C@@H](C(N)=O)NC(=O)[C@@H]2CCCN2C(=O)[C@@H](Cc2ccc(O)cc2)NC(=O)[C@H](Cc2cnc[nH]2)NC(=O)[C@H](CC(=O)O)NC(=O)[C@H](Cc2c[nH]c3ccc(F)cc23)NC(=O)[C@H](Cc2c[nH]c3ccc(F)cc23)NC(=O)CNC1=O [Compound 164] ([Mpa]KG[Trp(5-F)][Trp(5-F)]DH[dY]PC-NH2; linker 1-10 via mXylylene)
4.30 to 4.68 | CC(=O)N[C@H]1CSCc2cccc(c2)CSC[C@@H](C(N)=O)NC(=O)[C@@H]2CCCN2C(=O)[C@H](Cc2ccc(O)cc2)NC(=O)[C@H](Cc2c[nH]cn2)NC(=O)[C@H](CC(=O)O)NC(=O)[C@H](Cc2c[nH]c3ccc(F)cc23)NC(=O)[C@H](Cc2c[nH]c3ccccc23)NC(=O)CNC(=O)[C@H](CCCCN)NC1=O [Compound 176] (Ac-CKGW[Trp(5-F)]DHYPC-NH2; linker 1-10 via mXylylene)
4.30 to 4.68 | CC(=O)N[C@H]1CSCc2cccc(c2)CSC[C@@H](C(N)=O)NC(=O)[C@@H]2CCCN2C(=O)[C@H](Cc2ccc(O)cc2)NC(=O)[C@H](Cc2cnc[nH]2)NC(=O)[C@H](CC(=O)O)NC(=O)[C@H](Cc2c[nH]c3ccccc23)NC(=O)[C@H](Cc2c[nH]c3ccc(F)cc23)NC(=O)CNC(=O)[C@H](CCCCN)NC1=O [Compound 177] (Ac-CKG[Trp(5-F)]WDHYPC-NH2; linker 1-10 via mXylylene)

Structure (SMILES) | pIC50
NCCCC[C@@H]1NC(=O)CCCCCn2cc(nn2)CCC[C@@H](C(N)=O)NC(=O)[C@@H]2CCCN2C(=O)[C@H](Cc2ccc(O)cc2)NC(=O)[C@H](Cc2c[nH]cn2)NC(=O)[C@H](CC(=O)O)NC(=O)[C@H](Cc2c[nH]c3ccc(F)cc23)NC(=O)[C@H](Cc2c[nH]c3ccc(F)cc23)NC(=O)CNC1=O [Compound 154] | 4.92 to 6.00
